Laboratory results published in patent US20040171086A1, “Selective modulation of TLR-mediated biological activity” (3M Innovative Properties Company, priority 2003, published 2004).

Tests used:
TLR6 = biological target: T1, TLR6 (Homo sapiens, UniProt Q9Y2C9); assay: IFN-α1-luciferase reporter assay in genetically modified Namalwa cells, TLR6; type: cell-based; conditions: 10 μM IRM, 18 hours
T1 construct: expressed in transfected cells; host or cells: Namalwa (ATCC CRL-1432), pCI-TLR6 vector, G418 selected
T1 sequence (Q9Y2C9 32-796): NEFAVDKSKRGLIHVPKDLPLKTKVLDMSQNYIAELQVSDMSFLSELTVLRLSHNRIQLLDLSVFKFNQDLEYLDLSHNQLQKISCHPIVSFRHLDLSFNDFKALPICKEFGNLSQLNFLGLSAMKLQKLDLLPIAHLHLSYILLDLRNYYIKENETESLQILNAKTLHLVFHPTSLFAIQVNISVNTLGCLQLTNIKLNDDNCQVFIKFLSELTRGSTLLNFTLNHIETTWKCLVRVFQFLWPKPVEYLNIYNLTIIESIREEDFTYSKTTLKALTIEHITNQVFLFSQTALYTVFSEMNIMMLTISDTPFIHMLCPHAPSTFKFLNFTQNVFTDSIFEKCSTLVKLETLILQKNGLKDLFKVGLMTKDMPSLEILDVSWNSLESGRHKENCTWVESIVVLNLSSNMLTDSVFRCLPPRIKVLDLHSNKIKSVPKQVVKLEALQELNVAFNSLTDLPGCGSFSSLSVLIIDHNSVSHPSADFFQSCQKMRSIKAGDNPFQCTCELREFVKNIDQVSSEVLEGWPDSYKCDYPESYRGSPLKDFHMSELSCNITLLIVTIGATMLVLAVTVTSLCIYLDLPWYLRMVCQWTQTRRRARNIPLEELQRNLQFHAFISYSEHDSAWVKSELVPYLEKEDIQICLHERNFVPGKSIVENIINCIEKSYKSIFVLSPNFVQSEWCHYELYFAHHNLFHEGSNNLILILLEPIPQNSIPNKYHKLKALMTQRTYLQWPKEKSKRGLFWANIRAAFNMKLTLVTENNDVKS
Experimental: (§1) Results are shown in Table 6 and are expressed as fold induction of IFN-α1 —induced luciferase signal, again with respect to a vehicle control.
(§2) The assay identified TLR6-selective compounds (i.e., compounds that modulate TLR6-mediated activity, but not TLR7-mediated activity), TLR7-selective compounds (compounds that modulate TLR7-mediated activity, but not TLR6-mediated activity), and compounds that modulate cellular activity through both TLR6 and TLR7.
(§3) Unless otherwise indicated, all incubations were performed at 37° C. with 5% CO2 at 98% humidity.
(§4) Culture medium was prepared from complete RPMI 1640 medium (BioSource International, Inc., Camarillo, Calif.). Fetal bovine serum (Atlas Biologicals, Inc., Ft. Collins, Colo.) was added to a final concentration of 7.5% (vol/vol); L-glutamine (BioSource International, Inc.) was added to 5 mM; and sodium pyruvate (BioSource International, Inc.) was added to 1 mM.
Namalwa cells were grown by incubation in culture medium overnight. Cells were harvested by centrifugation in a tabletop centrifuge (1200 RPM for 5 minutes), and then resuspended in phosphate buffered sucrose to a concentration of 1.3×10^7 cells/mL.
For each transfection, a 750 μL aliquot of the cell suspension was placed in an electroporation cuvette with 4 mm gaps. 10 μg of the pIFN-α1-luc vector and 10 μg of the pCI-TLR6 vector were added to the electroporation cuvette. The cell and vector mixtures were incubated at room temperature for 5 minutes. The cells were electroporated using a BioRad Gene Pulser (BioRad Laboratories, Hercules, Calif.) set to at 500 μF capacitance and […], then incubated at room temperature for 5 minutes.
(§5) The electroporated cells were suspended in 10 mLs of culture medium and incubated overnight. Dead cells and debris were removed after 24 hours using a MACS Dead Cell Removal kit (Miltenyi Biotec, Auburn, Calif.). Cells were resuspended in 10 mL of culture medium and incubated for an additional 24 hours.
(§6) Transfected cells were selected by adding G418 (Promega Corp., Madison, Wis.) to a final concentration of 1 mg/mL and incubating the cells for seven days.
(§7) The selected transfected cells were counted and resuspended to a concentration of 1×10^6 cell per mL in culture medium. 100 μl aliquots of cells were placed in the wells of a white-walled, white-bottomed 96-well plate (Corning, Inc., Corning, N.Y.). 1.0 μL of an IRM compound from Table 1 (prepared at 1 mM in 100% DMSO) was added to some cell aliquots so that the final concentration of IRM compound was 10 μM. As a positive control, some cell aliquots were incubated with Sendai virus instead of IRM compound. As a negative control, some cell aliquots were incubated with DMSO without IRM compound. In all cases, the cells were incubated for 18 hours.
(§8) The plates were equilibrated to room temperature before one volume of reconstituted LucLight Plus (Packard Instruments, Meriden, Conn.) was added to each aliquot of cells. Each well of the plate was read on an LJL Analyst (LJL Biosystems, Inc., Sunnyvale, Calif.) set with a 5 minute dark adapt. Results are shown in Table 6 and are expressed as fold increase of the IFN-αl—induced luciferase signal compared to a DMSO control.

TLR7 = biological target: T2, TLR7 (Homo sapiens, UniProt Q9NYK1); assay: IFN-α1-luciferase reporter assay in genetically modified Namalwa cells, TLR7; type: cell-based; design: expressed in transfected cells; host or cells: Namalwa (ATCC CRL-1432); conditions: 10 μM IRM, 18 hours
T2 sequence (Q9NYK1 27-1049): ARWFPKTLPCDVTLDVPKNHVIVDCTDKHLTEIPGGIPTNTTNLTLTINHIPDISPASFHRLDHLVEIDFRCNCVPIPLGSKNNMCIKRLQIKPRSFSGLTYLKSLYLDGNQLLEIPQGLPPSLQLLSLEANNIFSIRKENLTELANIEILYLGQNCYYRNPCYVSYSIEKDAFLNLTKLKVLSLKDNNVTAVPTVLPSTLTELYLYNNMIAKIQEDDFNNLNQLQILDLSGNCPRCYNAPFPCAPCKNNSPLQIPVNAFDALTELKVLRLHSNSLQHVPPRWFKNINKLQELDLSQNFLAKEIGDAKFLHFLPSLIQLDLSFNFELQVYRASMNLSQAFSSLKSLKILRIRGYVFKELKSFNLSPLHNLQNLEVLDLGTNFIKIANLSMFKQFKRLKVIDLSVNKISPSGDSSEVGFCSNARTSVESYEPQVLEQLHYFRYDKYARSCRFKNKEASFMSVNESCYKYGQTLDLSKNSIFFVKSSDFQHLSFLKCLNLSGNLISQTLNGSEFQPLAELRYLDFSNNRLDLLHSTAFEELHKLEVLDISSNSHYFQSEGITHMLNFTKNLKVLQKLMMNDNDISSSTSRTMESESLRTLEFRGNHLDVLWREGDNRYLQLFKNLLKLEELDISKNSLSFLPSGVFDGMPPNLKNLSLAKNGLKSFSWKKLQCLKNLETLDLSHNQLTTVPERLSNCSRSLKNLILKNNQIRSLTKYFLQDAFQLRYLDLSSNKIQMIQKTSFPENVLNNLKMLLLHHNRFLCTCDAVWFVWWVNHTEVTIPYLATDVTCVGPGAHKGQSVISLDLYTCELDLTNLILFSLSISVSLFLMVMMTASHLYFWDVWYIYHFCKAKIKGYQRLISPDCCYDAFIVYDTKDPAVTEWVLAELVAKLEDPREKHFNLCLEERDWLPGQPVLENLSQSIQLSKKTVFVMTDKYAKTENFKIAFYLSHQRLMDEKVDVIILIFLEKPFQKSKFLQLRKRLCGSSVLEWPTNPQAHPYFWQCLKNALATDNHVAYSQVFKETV
Experimental: as §1, §2, §3, §4
Namalwa cells were grown by incubation in culture medium overnight. Cells were harvested by centrifugation in a tabletop centrifuge (1200 RPM for 5 minutes), and then resuspended in phosphate buffered sucrose to a concentration of 1.3×10^7 cells/mL. […]
as §5, §6, §7, §8

TLR6: fold increase of the IFN-α1-induced luciferase signal compared to a DMSO control (TLR6)	TLR7: fold increase of the IFN-α1-induced luciferase signal compared to a DMSO control (TLR7)	Compound
10.92 fold increase	1.95 fold increase	COCCc1nc2c(N)nc3ccccc3c2n1CCOCCNC(=O)N1CCOCC1 [IRM49, N-(2-{2-[4-amino-2-(2-methoxyethyl)-1H-imidazo[4,5-c]quinolin-1-yl]ethoxy}ethyl)morpholine-4-carboxamide]
8.80 fold increase	1.91 fold increase	CCc1nc2c(N)nc3ccccc3c2n1CCCCSC(C)C [IRM50]
3.67 fold increase	1.74 fold increase	COCCc1nc2c(N)nc3ccccc3c2n1CCOCCNC(=O)c1ccc(C(=O)NCCOCCn2c(CCOC)nc3c(N)nc4ccccc4c32)cc1 [IRM51, N,N′-bis(2-{2-[4-amino-2-(2-methoxyethyl)-1H-imidazo[4,5-c]quinolin-1-yl]ethoxy}ethyl)terephthalamide]

The next lines start with the compound.

Compound	TLR6: fold increase of the IFN-α1-induced luciferase signal compared to a DMSO control (TLR6)	TLR7: fold increase of the IFN-α1-induced luciferase signal compared to a DMSO control (TLR7)
CCCCc1nc2c(N)nc3ccc(OCC(=O)N4CCOCC4)cc3c2n1C [IRM44, 2-[(4-amino-2-butyl-1-methyl-1H-imidazo[4,5-c]quinolin-8-yl)oxy]-1-morpholin-1-ylethanone]	6.10 fold increase	1.60 fold increase
CCC(COCCCc1ccccc1)n1cnc2c(N)nc3ccccc3c21 (stereo not shown) [IRM45, 1-{1-[(3-phenylpropoxy)methyl]propyl}-1H-imidazo[4,5-c]quinolin-4-amine]	5.56 fold increase	1.87 fold increase
Nc1nc2ccccc2c2c1ncn2CCCC(=O)c1ccccc1 [IRM46, 4-(4-amino-1H-imidazo[4,5-c]quinolin-1-yl)-1-phenylbutan-1-one]	3.75 fold increase	1.83 fold increase
Cc1nc2c(N)nc3ccccc3c2n1CCOCC#Cc1ccccc1 [IRM47, 2-methyl-1-{2-[(3-phenylprop-2-ynyl)oxy]ethyl}-1H-imidazo[4,5-c]quinolin-4-amine]	9.42 fold increase	1.91 fold increase
CCc1nc2c(N)nc3ccc(OCc4ccccc4)cc3c2n1CCCCNC(=O)c1ccccc1 [IRM48, N-{4-[4-amino-8-(benzyloxy)-2-ethyl-1H-imidazo[4,5-c]quinolin-1-yl]butyl}benzamide]	4.56 fold increase	1.62 fold increase
